The values below come from US11753373B2, “Protease inhibitors as antivirals” (priority 2021, dated 2023).

Like-named read-outs stand apart in the source and are kept apart here.

The format of data set [1] is in vitro ADME. Conditions: extraction ratio, compound at 1 uM; for Liver Microsomal Stability (ER) SD rat: SD rat liver microsomes 0.5 mg/mL; for Liver Microsomal Stability (ER) Beagle dog: beagle dog liver microsomes 0.5 mg/mL; for Liver Microsomal Stability (ER) Monkey: monkey liver microsomes 0.5 mg/mL; for Liver Microsomal Stability (ER) Mouse: mouse liver microsomes 0.5 mg/mL. Background: Microsomes from liver hold many membrane-bound enzymes, among them those of drug oxidation.

The nature of data set [2]: in vivo. Conditions: female, Balb/c, mouse, po, 40 mg/kg.
Experimental: (§1) Pharmacokinetics of test compounds was evaluated following an oral administration of a single dose (at 40 mg/kg) to female Balb/c mice.
(§2) Procedure: Test compounds were administered to Balb/c mice (n=3 per sex per time point) by a single oral gavage. The target dose level for oral administration was 40 mg/kg. Blood samples were collected at pre-dose, and at 0.083, 0.25, 0.50, 1, 2, 4, 6, 8, and 12 hours post-dose. Concentrations of test compound were determined by an LC-MS/MS. Non-compartmental Pharmacokinetic parameters of test compounds were analyzed using Phoenix WinNonlin 8.3.
(§3) Animal Dosing: All animals were fasted overnight through approximately 4 hours post-dose. Tap water was provided to mice ad Libitum. The mice were dosed orally at 10.0 ml/kg. The formulation volume of the test compound administered to each animal was calculated based on the body weight measured on the day of dosing.
(§4) Sample Collection and Analysis: Approximately 0.20 mL of blood was collected via orbital sinus vein puncture into EDTA-K2 tubes. Plasma samples were harvested by centrifugation and stored at −80° C. until analysis. The analytical method for test compound involved protein precipitation by adding acetonitrile containing 1% FA and internal standard (A-1-a synthesized in house or Tolbutamide purchased from Sigma), and final analysis by LC-MS/MS. A standard curve was prepared using mouse plasma for the test compound. The calibration curve was linear over a concentration range of 1.0 to 1000 ng/mL.
(§5) Pharmacokinetic and Statistic Analysis: The reported plasma concentrations of test compounds were used to determine pharmacokinetic parameters, using a non-compartmental model for data analysis (Phoenix WinNonlin 8.3). The common pharmacokinetic parameters were calculated, whenever possible, from the plasma concentration-versus-time data. Nominal doses and sampling times were used, except where deviations were noted. […] BQL after Tmax would not participate in calculation of PK parameters.
Data set [3] has as its system SARS-CoV-2. In words: Anti-viral in vitro PRNT assay in Vero E6 cells. The data set is classed as cell-based. Conditions: Vero E6 cells, 1000 pfu, 3 days, plaque reduction; for EC50: read-out: anti-SARS-CoV2 (PRNT) in Vero E6 EC50.
Data set [4] is described as follows: in vivo. Conditions: female, beagle, dog, po, 40 mg/kg.
Experimental: Pharmacokinetics of test compounds was evaluated following an oral administration of a single dose (at 40 mg/kg) to female Beagle dogs.
Procedure: Test compounds were orally administered to beagle dogs (single dose). The target dose level for oral administration was 40 mg/kg. Blood samples were collected at pre-dose, and at 0.083, 0.25, 0.50, 1, 2, 4, 6, 8, and 24 hours post-dose. Concentrations of test compound were determined by an LC-MS/MS. Non-compartmental Pharmacokinetic parameters of test compounds were analyzed using Phoenix WinNonlin 8.3.
Animal Dosing: All animals were fasted ˜17-19 h prior to dosing and fed approximately 4 hours after dosing. […] The dogs were dosed at 10.0 ml/kg. The formulation volume of the test compound administered to each animal was calculated based on the body weight measured on the day of dosing.
Sample Collection and Analysis: Approximately 1 mL of blood was collected by jugular vein puncture into tubes containing EDTA-K2 anticoagulant. Plasma samples were harvested by centrifugation (2000 g for 10 minutes at 4° C. within 2 hours after collection) and stored at −80° C. until analysis. The analytical method for test compound involved protein precipitation by adding acetonitrile containing 1% FA and internal standard (A-1-a synthesized in house or Tolbutamide purchased from Sigma), and final analysis by LC-MS/MS. A standard curve was prepared using dog plasma for the test article. The calibration curve was linear over a concentration range of 1.0 to 1000 ng/mL.
as §5
The format of data set [5] is in vitro ADME, Human. Conditions: extraction ratio; for Liver Microsomal Stability (ER) Human: compound at 1 uM, human liver microsomes 0.5 mg/mL.
Data set [6] has as its system SARS-CoV-2 Omicron. In words: Virus release assay using EpiAirway. It is filed as cell-based. Conditions: Severe acute respiratory syndrome coronavirus 2.
Data set [7] deals with SARS-CoV-2 Omicron. In words: FRNT assay in Vero E6 cells. It is filed as cell-based. Conditions: Severe acute respiratory syndrome coronavirus 2, Vero C1008, 24 h.
The subject of data set [8] is SARS-CoV-2 Omicron. Briefly: FRNT assay in A549-hACE2 cells. The data set is classed as cell-based. Conditions: Severe acute respiratory syndrome coronavirus 2, 24 h.
The target of data set [9] is SARS-CoV-2 M^pro (3CL protease) (Severe acute respiratory syndrome coronavirus 2 (2019-nCoV) (SARS-CoV-2), UniProt P0DTD1). It is filed as biochemical. Conditions: read-out: SARS-CoV-2M^pro inhibition IC50.
For data set [10] the following is noted: mouse oral PK, female Balb/c, 40 mg/kg single dose, plasma.
Experimental: as §1, §2, §3, §4, §5
Setting [11] is: Severe acute respiratory syndrome coronavirus 2, Vero C1008, 72 h.
Where [12] appears, read: wild type Mpro 17 nM, substrate 40 uM.

As a reminder, the Cmax is the peak of the concentration-time curve. For orientation: Tmax means the time at which the peak concentration occurs. By bioavailability is commonly meant dose-corrected exposure relative to a reference, in per cent. Broadly, the half-life is the time in which the quantity being followed falls by half. One may read the EC50 as the concentration that produces a half-maximal response. On to `CC(C)C[C@H](NC(=O)c1cc2ccccc2[nH]1)C(=O)N[C@H](C=O)C[C@@H]1CCNC1=O` [Compound A-1-c, N—((S)-4-methyl-1-oxo-1-(((S)-1-oxo-3-((S)-2-oxopyrrolidin-3-yl)propan-2-yl)amino)pentan-2-yl)-1H-indole-2-carboxamide], for which, in data set [1], the “Liver Microsomal Stability (ER) SD rat” value is reported as 0.05, the “Liver Microsomal Stability (ER) Beagle dog” value is on record as 0.09, the “Liver Microsomal Stability (ER) Monkey” value is on record as 0.14 and the “Liver Microsomal Stability (ER) Mouse” value is 0.04. Besides, in data set [2], the AUC0-t stood at 2170 ng·h/mL, the highest level (Cmax) was 734 ng/mL, the time to peak (Tmax) amounted to 3 h and the bioavailability is 8%. For the same compound, the half-life in data set [2] was 1.07 h. Also, the EC50 in data set [3] (setting [11]) was 300 nM. Moreover, in data set [4], the AUC0-t turned out to be 36700 ng·h/mL, the highest level (Cmax) was 13800 ng/mL, the Tmax came to 0.833 h and the bioavailability was 31%. In data set [4], this compound showed a half-life of 4.84 h. Moreover, in [5] (compound at 0.1 uM, human liver microsomes), the “Liver Microsomal Stability (ER) Human, at 0.1 uM” value was 0.45(0.1 uM)*. Besides, in data set [5], the “Liver Microsomal Stability (ER) Human” value is listed as 0.12,.
In general, EC90 refers to the point of the concentration-response curve where the effect stands at 90%. For the compound `CC(C)C[C@H](NC(=O)c1cc2ccccc2[nH]1)C(=O)N[C@@H](C[C@@H]1CCNC1=O)C(O)S(=O)(=O)[O-].[Na+]` (stereo partly drawn) [Compound A-1-d, sodium (2S)-2-((S)-2-(1H-indole-2-carboxamido)-4-methylpentanamido)-1-hydroxy-3-((S)-2-oxopyrrolidin-3-yl)propane-1-sulfonate], in [1], the “Liver Microsomal Stability (ER) SD rat” value worked out at 0.12, the “Liver Microsomal Stability (ER) Beagle dog” value was determined as 0.04 and the “Liver Microsomal Stability (ER) Mouse” value is reported as 0.10. In [6], this compound registered an EC50 of 12 to 41 nM and an EC90 of 12 to 41 nM. In data set [2], the AUC0-t was determined as 2620 ng·h/mL, the Cmax was 1610 ng/mL, the time of peak concentration (Tmax) worked out at 0.5 h and the half-life is 0.893 h. In data set [3] (setting [11]), the concentration for a half-maximal effect (EC50) turned out to be 1060 nM. Further, in [7], the EC50 amounted to 360 nM and it took 410 nM to reach the 90% level (EC90). In [8], this compound came in with a concentration giving a half-maximal response (EC50) of 130 nM and an EC90 of 280 nM. In [4], the AUC0-t was determined as 95900 ng·h/mL, the Cmax was 27800 ng/mL, the Tmax came out at 2 h and the bioavailability was over 83%. In [4], this compound showed a half-life of 2.73 h. Further, in data set [5], the “Liver Microsomal Stability (ER) Human” value is on record as 0.08.
Consider `CC(C)C[C@H](NC(=O)c1cc2c(F)cccc2[nH]1)C(=O)N[C@H](C#N)C[C@@H]1CCNC1=O` [Compound A-3-a, (2S)—N-[(1S)-1-cyano-2-[(3S)-2-oxopyrrolidin-3-yl]ethyl]-2-[(4-fluoro-1H-indol-2-yl)-formamido]-4-methylpentanamide], for which, in [1], the “Liver Microsomal Stability (ER) SD rat” value stood at 0.21, the “Liver Microsomal Stability (ER) Beagle dog” value is recorded as 0.03, the “Liver Microsomal Stability (ER) Monkey” value is listed as 0.27 and the “Liver Microsomal Stability (ER) Mouse” value was found to be 0.07. In data set [2], the AUC0-t was determined as 15500 ng·h/mL, the Cmax stood at 8050 ng/mL, the Tmax worked out at 1 h and the half-life is 0.976 h. Besides, the 50% effective concentration (EC50) in [3] (setting [11]) stood at 5180 nM. Further, the “Liver Microsomal Stability (ER) Human” value in [5] stood at 0.02.
A word on the IC50: it is the concentration that inhibits the measured activity by half. On to `CC(C)C[C@H](NC(=O)c1cc2c(F)cccc2[nH]1)C(=O)N[C@@H](C[C@@H]1CCNC1=O)C(=O)CO` [Compound A-3-e, (2S)-2-[(4-fluoro-1H-indol-2-yl)formamido]-N-[(2S)-4-hydroxy-3-oxo-1-[(3S)-2-oxopyrrolidin-3-yl]butan-2-yl]-4-methylpentanamide], for which, in [1], the “Liver Microsomal Stability (ER) SD rat” value is 0.17, the “Liver Microsomal Stability (ER) Beagle dog” value worked out at 0.05 and the “Liver Microsomal Stability (ER) Mouse” value stood at 0.23. Besides, in data set [2], the AUC0-t was determined as 261 ng·h/mL, the Cmax is 131 ng/mL, the Tmax is 0.25 h and the half-life was 1.25 h. Also, in data set [9], the IC50 is 5.11 nM. The “Liver Microsomal Stability (ER) Human” value in data set [5] turned out to be 0.11.
As for `Cc1cccc2[nH]c(C(=O)N[C@@H](CC(C)C)C(=O)N[C@H](C=O)C[C@@H]3CCNC3=O)cc12` [Compound A-4-a, 4-methyl-N—((S)-4-methyl-1-oxo-1-(((S)-1-oxo-3-((S)-2-oxopyrrolidin-3-yl)propan-2-yl)amino)pentan-2-yl)-1H-indole-2-carboxamide], in [1], the “Liver Microsomal Stability (ER) SD rat” value is 0.06, the “Liver Microsomal Stability (ER) Beagle dog” value worked out at 0.22, the “Liver Microsomal Stability (ER) Monkey” value stood at 0.098 and the “Liver Microsomal Stability (ER) Mouse” value is 0.13. The compound further had a half-life in data set [2] of 1 h. Further, the EC50 in data set [3] (setting [11]) is 1130 nM. The IC50 in data set [9] was 2.39 nM. Also, the “Liver Microsomal Stability (ER) Human” value in [5] came to 0.21.
On to `CC(C)C[C@H](NC(=O)c1cc2ccccc2[nH]1)C(=O)N1C[C@H]2[C@@H]([C@H]1C(=O)N[C@H](C=O)C[C@@H]1CCNC1=O)C2(C)C` [Compound G-1-a], for which, in data set [1], the “Liver Microsomal Stability (ER) SD rat” value is 0.16, the “Liver Microsomal Stability (ER) Beagle dog” value stood at 0.09, the “Liver Microsomal Stability (ER) Monkey” value is 0.33 and the “Liver Microsomal Stability (ER) Mouse” value was 0.00. Further, in data set [10], the “AUC0-t” value amounted to 36.1 ng·h/mL, the “Cmax” value is recorded as 13.3 ng/mL, the “Tmax” value came to 1 h and the “t1/2” value was found to be 0.92 h. Moreover, the EC50 in [3] came out at 25100 nM. Also, the IC50 in data set [9] (setting [12]) came to 9.57 nM. The “Liver Microsomal Stability (ER) Human” value in data set [5] came out at 0.28.
With `CC(C)C[C@H](NC(=O)C1CC1)C(=O)N1C[C@H]2[C@@H]([C@H]1C(=O)N[C@H](C#N)C[C@@H]1CCNC1=O)C2(C)C` [Compound H-1-f], in data set [1], the “Liver Microsomal Stability (ER) SD rat” value stood at 0.04, the “Liver Microsomal Stability (ER) Beagle dog” value came to 0.01 and the “Liver Microsomal Stability (ER) Mouse” value was determined as 0.27. Also, in data set [10], the “AUC0-t” value came to 72.0 ng·h/mL, the “Cmax” value amounted to 32.1 ng/mL, the “Tmax” value is listed as 1.0 h and the “t1/2” value was 1.43 h. In addition, in data set [3], the “anti-SARS-CoV2 (PRNT) in Vero E6 EC50 (μM)” value is listed as “Inactive”. Moreover, the IC50 in data set [9] (setting [12]) amounted to 28.6 nM. Also, the “Liver Microsomal Stability (ER) Human” value in [5] is recorded as 0.03.
